The term IC50 denotes the point on the concentration scale where inhibition reaches its midpoint.

Calls of active or inactive are those of the source. No rule for the calls is given here.

Among the data in PubChem BioAssay AID651569 (Sanford-Burnham Center for Chemical Genomics, 2012) are IC50 values, retold here.

This test has as its system luminescent cytotoxicity (cell viability) counter-screen. The test can be described thus: cytotoxicity of Gli-SUFU antagonist hits, dose response, cytotoxicity control for Gli-SUFU antagonist project, cell-based, luminescence, uHTS hits (AID 651569).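 Also: compound exposure lasted overnight before the viability readout.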
Turning to `Cc1ccc(S(=O)(=O)N2CCN(C(=O)C3CCN(c4ncnc5sc(C)c(C)c45)CC3)CC2)c(C)c1`, the IC50 was > 20 µM (inactive).
As to `Cc1sc2ncnc(N3CCN(S(=O)(=O)c4ccc(C(C)(C)C)cc4)CC3)c2c1C`, the IC50 is > 20 µM (inactive).
For `CCCOc1ccc(Br)cc1CSC(=N)N` the value was 8.78 µM.
For the compound `O=C(N[C@@H]1C/C=C\C[C@H](CC(=O)N(CCO)Cc2ccccc2)C(=O)NC[C@@H](c2ccccc2)OC1=O)OCC1c2ccccc2-c2ccccc21`, the IC50 was > 20 µM (inactive).
For `COc1ccc(NS(=O)(=O)c2cccc(NC(=O)c3ccc(S(=O)(=O)N4CCCCCC4)cc3)c2)cc1` the value was > 20 µM (inactive); for `C/C(=N\NC(=O)C(=O)Nc1ccc(C)c(Cl)c1)c1ccncc1`, > 20 µM (inactive); for `O=C(Nc1cc(N2CCCCC2)ncn1)c1ccccc1`, > 20 µM (inactive).
Consider `CC(=O)c1cn(Cc2ccccc2F)c2ccccc12`, for which the IC50 was > 20 µM (inactive).
For `c1ccc(-c2c[n+]3c(n2-c2ccccc2)CCC3)cc1` the value was > 20 µM (inactive); for `COc1cc(C(=O)NC2CCN(C)CC2)ccc1Nc1ncc2c(n1)N(C1CCCCC1)CCC(=O)N2C`, 15.7 µM.
`Clc1ccc(-n2cc(-c3ccc(Br)cc3)[n+]3c2CCCCC3)cc1`: the IC50 was > 20 µM (inactive).
For `Nc1ccc(Br)cc1-c1nc2ccccc2[nH]c1=O` the value was > 20 µM (inactive); for `CCn1c(/C=C/Nc2ccccc2)[n+](CC)c2ccc(Cl)cc21`, > 20 µM (inactive).
Regarding `CC1CCN(Cc2c(C(=O)N/N=C/c3ccccc3O)nnn2-c2nonc2N)CC1`, the IC50 was > 20 µM (inactive).
In the case of `CCOC(=O)N1CCN(C(=O)c2ccc(CSc3ccc(Cl)cc3)cc2)CC1` it was > 20 µM (inactive).
Turning to `CC1Cc2cc(S(=O)(=O)N3CCC(C(=O)N4CCN(c5ccccc5F)CC4)CC3)ccc2N1C(=O)C1CC1` (centres undefined), the IC50 was 7.01 µM.
In the case of `CCCCCCn1c(=O)c(C(=O)Nc2cnccn2)c(O)c2ccccc21` it was > 20 µM (inactive); in that of `c1ccc(-c2c[n+]3c(n2-c2ccccc2)SCC3)cc1`, > 20 µM (inactive); in that of `CCOc1ccc(S(=O)(=O)NCc2ccncc2)cc1NC(=O)c1ccccc1`, > 20 µM (inactive).
For `CCCc1nc(SCC(=O)Nc2nnc(CC)s2)c2c(=O)n(C)c(=O)n(C)c2n1` the value was > 20 µM (inactive); for `COCCNc1nc2c(c(=O)n(C)c(=O)n2C)n1Cc1cccc(C)c1`, > 20 µM (inactive).
Turning to `O=C(N[C@@H]1C/C=C\C[C@@H](CC(=O)N(CCO)Cc2ccccc2)C(=O)N[C@@H](c2ccccc2)COC1=O)OCC1c2ccccc2-c2ccccc21`, the IC50 is > 20 µM (inactive).
For `O=c1c2ccccc2sc2c(CO)ccc(NCCN3CCCCC3)c12` the value was 19.1 µM; for `Cc1ccc2c(c1)c(C)cc[n+]2Cc1ccccc1`, > 20 µM (inactive); for `Cc1ncoc1C(=O)NC1CCCc2c1cnn2-c1ccc(C(C)(C)C)cc1` (centres undefined), > 20 µM (inactive).
Take `COC(=O)c1cc(S(=O)(=O)N2CCC(c3cc(OC)ccc3OC)C2)c[nH]1` (centres undefined): the IC50 is > 20 µM (inactive).
In the case of `O=C(NCCNc1ccnc2cc(Cl)ccc12)c1ccccc1F` it was > 20 µM (inactive); in that of `CCOC(=O)N1CCN(C(=O)c2cc(COc3ccc4ncccc4c3)on2)CC1`, > 20 µM (inactive).
In the case of `COc1cc(NS(=O)(=O)c2ccc(C)cc2C)cc(OC)c1OC` it was 16 µM.
For the compound `COC(=O)C1=C(c2cc3ccccc3o2)C[C@@H]2CC[C@H]1N2C(=O)N1CCC(C)CC1`, the IC50 was > 20 µM (inactive).
In the case of `O=C(Nc1ccccc1)C1=C[C@H](C2CCCCC2)C[C@H](OCCCCO)O1` it was > 20 µM (inactive); in that of `Brc1ccc(-c2c[n+]3c(n2-c2ccccc2)SCC3)cc1`, > 20 µM (inactive).
On to `Cc1nn(C)c(C(=O)NCc2ccc(Cl)cc2)c1Cl`, for which the IC50 was > 20 µM (inactive).
Take `CC[C@@H](O)C[C@H]1CCC[C@@]2(C[C@@H]3OC(=O)/C=C/[C@@](C)(O)[C@@H](O)[C@H](C)[C@@H](O)[C@H](OC4CCC(N(C)C)C(C)O4)[C@@H](O)[C@](C)(O)CCCCC/C=C/[C@@H]4CC(C)(C)O[C@@]4(O)C[C@H](O2)[C@H]3C)O1` (some centres undefined): the IC50 was > 20 µM (inactive).
For `CCOP(=O)(CCP(=O)(OCC)OCC)OCC.C[CH2][Sn]([Cl])([Cl])[CH2]C` the value was 12.6 µM; for `Nc1nc2ccccc2n1/N=C/c1ccc([N+](=O)[O-])s1`, > 20 µM (inactive); for `CC(C)C(=O)NC(=S)/C=C1/N(C)c2ccccc2C1(C)C`, > 20 µM (inactive).
In the case of `CC(C)n1c(-c2ccco2)csc1=Nc1cccnc1` it was > 20 µM (inactive); in that of `CN(Cc1nccs1)C(=O)c1cc(COc2cccc3cnccc23)on1`, > 20 µM (inactive); in that of `COc1ccccc1NS(=O)(=O)c1cccc(C(=O)NC2CCN(Cc3ccccc3)CC2)c1`, > 20 µM (inactive).
For `Cc1sc2ncnc(NCC(C)(C)N3CCOCC3)c2c1C` the value was > 20 µM (inactive); for `Cn1nc(CC(=O)NCc2ccc(C(F)(F)F)cc2)c2ccccc2c1=O`, > 20 µM (inactive); for `CCCCCCCOc1ccc(OC(=O)c2cccnc2)cc1`, > 20 µM (inactive).
Take `CCOc1ccc(-c2nc(CSCC(=O)NC3CC3)c(C)o2)cc1`: the IC50 is > 20 µM (inactive).
In the case of `Cc1nc2cc(N3CCN(C)CC3)c(NC(=O)Cc3ccccc3)cc2c(=O)n1Cc1ccccc1`, the IC50 is > 20 µM (inactive).
For `c1ccc2c(c1)OCC(CNc1ncnc3sccc13)O2` (centres undefined) the value was > 20 µM (inactive); for `COc1ccc(CN2CCC(C(=O)Nc3ccc(Oc4cccnc4)cc3)CC2)c(C)c1C`, 19.5 µM.
Regarding `CC(=O)c1c(C)[nH]c(C(=O)OCC(=O)Nc2sc3c(c2C#N)CCCC3)c1C`, the IC50 was > 20 µM (inactive).
In the case of `Cc1sc2ncnc(NCC(O)c3ccc([N+](=O)[O-])cc3)c2c1C` (centres undefined) it was > 20 µM (inactive).
`Cc1ccc(Cl)cc1N1CCN(C(=O)CSc2nnc3n2C(C)(C)Cc2ccccc2-3)CC1`: the IC50 was > 20 µM (inactive).
For the compound `COc1ccccc1C(=O)NC(=S)/C=C1/N(C)c2ccccc2C1(C)C`, the IC50 was > 20 µM (inactive).
For `O=C(Nc1ccc(C(F)(F)F)cc1)C1CCN(S(=O)(=O)c2ccc(N3CCCC3=O)cc2)CC1` the value was > 20 µM (inactive); for `CC[N+]1=C(C)C(C)(C)c2cc(C)ccc21`, > 20 µM (inactive).
For `COc1cc(C(=O)NC2CCN(C)CC2)ccc1Nc1ncc2c(n1)N(Cc1ccccc1)CCC(=O)N2C`, the IC50 is > 20 µM (inactive).
Consider `Cc1ccc(OCCN2CCN(c3ncnc4sc(C)c(C)c34)CC2)cc1`, for which the IC50 was > 20 µM (inactive).
Take `C=CCNC(=S)/N=c1/ccccn1Cc1ccccc1`: the IC50 is > 20 µM (inactive).
Take `COCCNc1nc2c(c(=O)n(C)c(=O)n2C)n1Cc1cccc(C(F)(F)F)c1`: the IC50 was 12.4 µM.
For `C[C@@H]1COC(=O)[C@H](NC(=O)OCC2c3ccccc3-c3ccccc32)C/C=C\C[C@@H](CC(=O)N[C@@H](CO)Cc2ccccc2)C(=O)N1` the value was > 20 µM (inactive).
For `COc1ccc(NS(=O)(=O)c2ccc(N3CCN(CCO)CC3)c([N+](=O)[O-])c2)cc1` the value was > 20 µM (inactive); for `CCN(CC)S(=O)(=O)c1ccc(S(=O)(=O)N2CCCC(C(=O)NC3CC3)C2)cc1` (centres undefined), > 20 µM (inactive); for `CCCCSc1nc2sc3c(c2c(=O)n1-c1ccc(C)cc1)CCN(C)C3`, > 20 µM (inactive).
With `CC(C)(C)[C@H]1COC(=O)[C@H](NC(=O)OCC2c3ccccc3-c3ccccc32)C/C=C\C[C@@H](CC(=O)N(CCO)Cc2ccccc2)C(=O)N1`, the IC50 is > 20 µM (inactive).
In the case of `CN1/C(=C\C=Nc2ccccc2)C(C)(C)c2ccccc21` it was > 20 µM (inactive).
Take `CCCCCCCNC1=CC(=O)CC(c2ccccc2)C1` (centres undefined): the IC50 was 16.5 µM.
For `c1ccc(Cn2c(-c3ccccc3)c[n+]3c2SCCC3)cc1` the value was > 20 µM (inactive); for `CCn1cc[n+](C)c1P(c1ccccc1)c1ccccc1`, > 20 µM (inactive).
Consider `CN(CCOc1ccc(Cl)cc1)C(=O)c1cccc(S(=O)(=O)N2CCN(c3ccc(F)cc3)CC2)c1`, for which the IC50 is > 20 µM (inactive).
As for `Cc1nnsc1C(=O)Nc1ccc(S(=O)(=O)N2CCC(C)CC2)cc1`, the IC50 is > 20 µM (inactive).
`CCCCN(C(C)=O)c1ccc2c(c1)C1CC2CCN1C(=O)OCc1ccccc1` (centres undefined): the IC50 was 8.16 µM.
For `O=C(N[C@H]1C/C=C\C[C@@H](CC(=O)N(CCO)Cc2ccccc2)C(=O)N[C@H](Cc2c[nH]c3ccccc23)COC1=O)OCC1c2ccccc2-c2ccccc21` the value was > 20 µM (inactive); for `Cc1ccc(OCCOC(=O)c2cc(S(=O)(=O)N3CCCCC3)ccc2N2CCOCC2)cc1`, > 20 µM (inactive); for `COc1ccc(-c2c[n+](CC(=O)c3ccccc3)c3n2CCCCC3)cc1`, > 20 µM (inactive).
Regarding `C=CCn1c(O)c(N=NC(=S)Nc2cccc(C)c2)c2ccccc21`, the IC50 was > 20 µM (inactive).
For `CCCCCn1c(=N)n(CC(O)COc2ccccc2OC)c2ccccc21` (centres undefined), the IC50 was > 20 µM (inactive).
